Measured values from patent US20240131032A1, “AN ACTIVITY-GUIDED MAP OF ELECTROPHILE-CYSTEINE INTERACTIONS IN PRIMARY HUMAN IMMUNE CELLS” (The Scripps Research Institute, priority 2019, published 2024).

Assays:
BIRC2 = BIRC2 (Homo sapiens, UniProt Q13490, C45A); test: Western blot of BIRC2 content in human T cells; details: EV-3 10 μM, AT-406 1 μM, 24 h; transfected primary human T cells
Procedure: All treatments were for 24 h.
All treatments were for 24 h. […] Plasmids expressing FLAG epitope-tagged versions of wild-type (WT) or the indicated cysteine-to-alanine mutants of BIRC2 (C45A) and BIRC3 (C28A) were co-transfected into primary human T cells with mCherry-expressing plasmid to control for transfection efficiency for 24 h. Cells were then treated with DMSO, EV-3 (10 μM), or AT-406 (1 μM) for 24 h and analyzed by anti-FLAG western blotting. […] (G) Quantitation of western blot data, where protein band intensity calculations were made using ImageJ software and represent the mean percentage of DMSO treated control±SEM; n=3 independent experiments per group. *p<0.05; **p<0.01 by two-tailed unpaired t test with Welch's correction compared to respective DMSO treatments.
Western blot analysis was performed on freshly isolated or expanded T cells. For Western blot protein degradation analysis, primary human T cells (2×10^7 cells/treatment) were re-suspended in RPMI media at 2×10^6 cells/mL and treated with the compounds or DMSO at 37° C. in a CO2 containing incubator for 24 h (or otherwise indicated times).

primary human T cells [1] = test: Multidimensional screen for inhibition of T cell activation (IL-2, IFN-γ secretion, CD25, CD69 expression); assay type: cell-based; details: anti-CD3/anti-CD28-stimulated T cells
Procedure: FIG. 4A-4D is an overview of a multidimensional screen to identify elaborated electrophilic compounds that suppress T cell activation. FIG. 4A is a workflow for T-cell activation screen. Primary human T cells were treated with a focused library of elaborated electrophilic compounds (10 μM, structures of compounds in FIG. 12), a positive control immunosuppressive compound (DMF, 50 μM), or DMSO under TCR-stimulating conditions in 96-well plates pre-coated with 5 μg/mL αCD3 and 2 μg/mL αCD28 for 24 h. T cell activation was measured using a combination of markers, including IL2 and IFNγ secretion, as well as surface expression of CD25 and CD69. T cell viability was measured by flow cytometry using a Fixable Near-IR LIVE/DEAD™ Cell Stain. Compounds were considered as active hits if they reduced IL2 cytokine production by >65% with <15% reduction in T cell viability in the cytotoxicity assay compared to DMSO control. […]
The levels of secreted IL2, IFNγ and TNFα after incubating T cells in the presence of DMSO or electrophilic compounds under TCR-stimulating conditions were measured using DuoSet ELISA cytokine kits (R&D Systems) in clear microplates (R&D Systems) according to manufacturer's instructions and read using a CLARIOstar (BMG Labtech) plate reader (450 nm). All cytokine concentrations were calculated according to the standard curve generated for each experiment.

primary human T cells [2] = test: T cell viability by flow cytometry (near-IR LIVE/DEAD stain); assay type: cell-based; details: concentration-dependent profiles, at <20 μM
Procedure: FIG. 4A-4D is an overview of a multidimensional screen to identify elaborated electrophilic compounds that suppress T cell activation. FIG. 4A is a workflow for T-cell activation screen. Primary human T cells were treated with a focused library of elaborated electrophilic compounds (10 μM, structures of compounds in FIG. 12), a positive control immunosuppressive compound (DMF, 50 μM), or DMSO under TCR-stimulating conditions in 96-well plates pre-coated with 5 μg/mL αCD3 and 2 μg/mL αCD28 for 24 h. T cell activation was measured using a combination of markers, including IL2 and IFNγ secretion, as well as surface expression of CD25 and CD69. T cell viability was measured by flow cytometry using a Fixable Near-IR LIVE/DEAD™ Cell Stain. Compounds were considered as active hits if they reduced IL2 cytokine production by >65% with <15% reduction in T cell viability in the cytotoxicity assay compared to DMSO control. […] FIG. 4C are structures of active hit compounds selected for follow-up studies, including two acrylamides (BPK-21, BPK-25), two chloroacetamides (EV-3, EV-93) and DMF as a positive control. FIG. 4D are line graphs showing T cell activation and cytotoxicity profiles for selected hit compounds.
Non-tissue culture treated 96-well plates were pre-coated with αCD3 (5 μg/mL) and αCD28 antibodies (2 μg/mL) in PBS (100 μL/well) and left at 4° C. overnight. Freshly isolated T cells were re-suspended in RPMI media supplemented with 10% FBS, L-glutamine (2 mM), penicillin (100 U/mL), and streptomycin ([…]) at 2×10^6 cells/mL. Compound stocks (200×) in DMSO were diluted to 2× stocks in the working RPMI media in another 96-well plate. The pre-coated 96-well treatment plates were washed with PBS ([…]), T cells (100 μL/well, 2×10^5 cells/well) were then added to the wells, followed by the addition of 2× compound stocks in RPMI media (100 μL). The outer wells of the plates were filled with media without cells to avoid the edge effect in the assay. The treatment was done overnight (24 h) at 37° C. in a 5% CO2 containing incubator. Following the treatment, the cells were transferred to a U-bottom 96-well plate and harvested by centrifugation (600 g, 3 min, 4° C.). The supernatants were kept and stored at −80° C. for further cytokine analysis, while the cells were washed with PBS (2×150 μL) prior to staining for flow cytometry analysis.
Following the PBS washes, the cells were stained with fixable near-IR LIVE/DEAD cell stain (Invitrogen) according to manufacturer's instructions. Briefly, one vial of near-IR LIVE/DEAD dye was resuspended in DMSO (50 μL) and diluted with PBS (1:1000). The diluted stain was added to each well (200 μL) and the cells were incubated for 30 min at room temperature in the dark. After this time, the cells were pelleted (600 g, 3 min, 4° C.), washed once with PBS (200 μL/well) and incubated with a freshly made cocktail of antibodies for the appropriate cell surface markers diluted in PBS containing 2% FBS (1:400 antibody dilution).

MYD88 = biological target: T1, MYD88 (Homo sapiens, UniProt Q99836); test: isoTOP-ABPP and TMT-ABPP cysteine engagement, MYD88; assay type: binding; details: scout fragments
T1 construct: endogenous in cells
Procedure: Activated or expanded T cells were re-suspended in RPMI media supplemented with 10% FBS, L-glutamine (2 mM), penicillin (100 U/mL), and streptomycin (100 μg/mL) at 2×10^6 cells/mL. The compounds were added to cells as 1000×DMSO stocks and mixed well with the media by pipetting up and down after addition. The cells were kept at 37° C. in 5% CO2 containing incubators for 3 h (or otherwise specified times), then pelleted by centrifugation (524 g, 5 min, 4° C.), washed with cold PBS (10 mL) and transferred to Eppendorf tubes (1 mL PBS). The cells were pelleted again (524 g, 5 min, 4° C.), flash-frozen, and kept at −80° C. until further analysis.
Activated or expanded primary human T cells were re-suspended in RPMI (1×10^6 cells/mL) containing 10% fetal bovine serum (FBS), penicillin (100 U/mL), streptomycin ([…]), and L-glutamine (2 mM). The cells were treated with DMSO or compounds for 3 h, pelleted (524 g, 5 min), washed with PBS, and lysed by sonication (2×8 pulses). Soluble and particulate proteomic fractions were separated by ultracentrifugation (100,000 g, 45 min), and protein concentration was normalized to 1.7 mg/mL using a standard DC protein assay (Bio-Rad). The resulting proteomes were analyzed by competitive isotopic Tandem Orthogonal Proteolysis Activity-Based Protein Profiling (isoTOP-ABPP). […]
The heavy/light isoTOP-ABPP ratios (R values) for each unique peptide (DMSO/compound treated) were quantified with in-house CIMAGE software (Weerapana et al., 2010) using default parameters (3 MS1 acquisitions per peak and signal to noise threshold set to 2.5). Site-specific engagement of cysteine residues was assessed by blockade of IA-alkyne probe labeling. […] Ratios for unique peptide sequences were calculated for each experiment; overlapping peptides with the same modified cysteine (e.g., different charge states, elution times or tryptic termini) were grouped together and the median ratio was reported as the final ratio (R). […]

PDCD1 = biological target: T2, PDCD1 (Homo sapiens, UniProt Q15116); test: TMT-ABPP scout fragment sensitivity, PDCD1; assay type: binding; details: activated T cells; 500 μM, 1 h
T2 construct: endogenous in cells
Description: FIG. 2A-2J provides an overview of chemical proteomic mapping of fragment electrophile-cysteine interactions and reactivity changes in human T cells. […] This protocol was applied to both control and activated T cells. FIG. 2B are structures of scout fragments KB02 and KB05. FIG. 2C-FIG. 2D are pie chart representations of cysteines (C) and proteins (D) liganded with scout fragments. Results were obtained by combining soluble and particulate proteomic fraction data for KB02 and KB05 treatments (500 μM, 1 h) of both control and activated T cells. R-values within each experimental treatment group were derived from 3-5 independent isoTOP-ABPP experiments and 4 independent TMT-ABPP experiments (6 TMT channels). A cysteine was required to be quantified in at least two experiments for each compound treatment or proteomic fraction group to be reported. FIG. 2E are bar graphs showing the total number (left) and percentage (right) of liganded cysteines per total number of cysteines quantified across the indicated reactivity ranges, where cysteine reactivity was determined by isoTOP-ABPP experiments performed with different concentrations of the IA-alkyne probe (10 and 100 μM), as described previously (Weerapana et al., 2010). FIG. 2F are bar graphs showing the total number (left) and percentage (right) of liganded proteins with expression or reactivity changes in activated T cells. […]

T1 sequence (Q99836 whole entry, the tested form may be a part): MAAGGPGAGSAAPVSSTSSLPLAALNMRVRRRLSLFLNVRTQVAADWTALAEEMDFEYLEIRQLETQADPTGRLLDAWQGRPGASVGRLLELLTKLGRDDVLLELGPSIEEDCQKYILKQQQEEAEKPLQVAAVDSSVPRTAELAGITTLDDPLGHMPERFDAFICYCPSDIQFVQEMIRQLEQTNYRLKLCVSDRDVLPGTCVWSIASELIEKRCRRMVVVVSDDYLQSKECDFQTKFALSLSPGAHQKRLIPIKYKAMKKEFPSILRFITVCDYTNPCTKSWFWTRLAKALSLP
Sequence of BIRC2 (Q13490 whole entry C45A): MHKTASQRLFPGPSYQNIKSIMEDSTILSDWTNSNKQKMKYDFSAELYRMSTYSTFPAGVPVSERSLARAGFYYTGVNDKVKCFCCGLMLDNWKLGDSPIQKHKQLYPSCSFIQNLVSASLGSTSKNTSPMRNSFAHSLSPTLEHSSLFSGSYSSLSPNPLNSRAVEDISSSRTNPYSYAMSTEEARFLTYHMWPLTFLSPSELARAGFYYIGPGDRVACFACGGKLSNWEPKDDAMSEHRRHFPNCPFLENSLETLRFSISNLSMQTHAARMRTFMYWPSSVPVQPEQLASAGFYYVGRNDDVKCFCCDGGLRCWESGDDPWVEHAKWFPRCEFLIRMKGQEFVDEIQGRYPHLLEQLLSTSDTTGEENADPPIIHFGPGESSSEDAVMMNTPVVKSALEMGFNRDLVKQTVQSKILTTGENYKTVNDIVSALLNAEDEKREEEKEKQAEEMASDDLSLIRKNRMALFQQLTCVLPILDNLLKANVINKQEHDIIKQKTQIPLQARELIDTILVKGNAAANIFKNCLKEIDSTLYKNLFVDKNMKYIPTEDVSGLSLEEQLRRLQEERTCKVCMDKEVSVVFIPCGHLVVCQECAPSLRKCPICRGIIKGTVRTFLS
T2 sequence (Q15116 25-288): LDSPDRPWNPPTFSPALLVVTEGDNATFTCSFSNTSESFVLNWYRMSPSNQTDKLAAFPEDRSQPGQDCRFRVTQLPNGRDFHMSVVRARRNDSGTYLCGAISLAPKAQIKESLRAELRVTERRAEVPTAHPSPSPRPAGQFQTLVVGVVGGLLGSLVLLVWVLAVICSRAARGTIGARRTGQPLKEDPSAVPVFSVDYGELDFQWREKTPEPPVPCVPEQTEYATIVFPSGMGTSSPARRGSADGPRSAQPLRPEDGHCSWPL

CN[C@@H](C)C(=O)N[C@H]1CN(C(=O)CC(C)C)CC[C@H]2CC[C@@H](C(=O)NC(c3ccccc3)c3ccccc3)N2C1=O [AT406]
FLAG-tagged BIRC2 C45A mutant content (BIRC2): still promotes the degradation

CCCCS(=N)(=O)CCC(N)C(=O)O (stereo not drawn) [BSO, buthionine sulphoximine]
effect on T cell activation (primary human T cells [1]): did not affect T cell activation

O=C(c1cccc(N2CCOCC2)c1)N1CCC(N(C(=O)CCl)c2ccccc2)C(Cc2ccccc2)C1 (stereo not drawn) [EV-93]
cytotoxicity (primary human T cells [2]): negligible cytotoxicity

COc1ccc2c(c1)CCCN2C(=O)CCl [KB02]
modification of MYD88 at either C274 or C280 (tryptic peptide 270-282) (MYD88): covalently modified | sensitivity of C93 of PDCD1 (PDCD1): KB02-sensitivity

C=CC(=O)N(c1ccccc1)c1ccc(Br)cc1 [KB05]
modification of MYD88 at either C274 or C280 (tryptic peptide 270-282) (MYD88): covalently modified
